The values that follow come from US6372779B1, “Anti-inflammatory compounds” (Ortho Pharmaceutical Corporation, priority 1997, dated 2002).

“Also recorded” adds a separate entry of the source.

In series [1] the test system is oxazolone-induced ear swelling in CD-1 mice. Kind of series: mouse oxazolone-induced contact hypersensitization (MOCH), ear swelling. The series is classed as in vivo. Particulars: for inhibition in vivo at 1 mg: topical to ear, mouse, 24 hours after oxazolone challenge, read-out: Oxazolone Ear Swelling (MOCH) % inhibition vs. Vehicle at 1 mg; for topical antiinflammatory activity in the oxazolone model (in words): mouse ear. On the procedure: Several triphenylpropanamide compounds of this invention, having varying affinities for the human glucocorticoid receptor, were tested for topical antiinflammatory activity in mouse ear inflammation models. […] Compounds having receptor affinities closer to hydrocortisone were as nearly active as hydrocortisone in suppressing mouse oxazolone-induced contact hypersensitization (MOCH) and phorbol ester-induced ear edema. The in vivo studies of this example were conducted as follows.
In determining the MOCH using the compounds of this invention, albino male CD-1 mice, 7-9 weeks old were induced on the shaved abdomen with 50 μl of 3% oxazolone in acetone/corn oil (Day 0). On Day 5, a 20 μl volume of 2% oxazolone in acetone was applied to the dorsal left ear of the mouse. Compounds (made in ethanol/propylene glycol, 70:30) were applied to the left ear in 20 μl volume, one hour after oxazolone challenge. The right ear was not treated. The mice were sacrificed by carbon dioxide inhalation 24 hours after oxazolone challenge, the left and right ears were removed and a 7 mm biopsy was removed from each ear and weighed. The difference in biopsy weights between the right and left ears was calculated. Antiinflammatory effects of compounds were evident as an inhibition of the increase in ear weight.

As to `O=S(=O)(NCC(c1ccccc1)C(c1ccccc1)c1ccccc1)c1cccs1` (stereo not shown) [Compound 40], the melting point was in the range of 169 to 170.9 °C. The inhibition in vivo at 1 mg in series [1] came to 15%.
On the same counts, the results for `O=C(CS(=O)(=O)c1ccccc1)NCC(c1ccccc1)C(c1ccccc1)c1ccccc1` (stereo not shown) [Compound 27] are 186.9 to 187.5 °C and 20%.
With `COc1ccc(CC(=O)NCC(c2ccccc2)C(c2ccccc2)c2ccccc2)cc1` (stereo not shown) [Compound 6], the melting point was in the range of 157 to 159 °C. Moreover, the inhibition in vivo at 1 mg in series [1] stood at 38%.
Taken in the same sequence, the figures for `O=C(Cc1cccc(C(F)(F)F)c1)NCC(c1ccccc1)C(c1ccccc1)c1ccccc1` (stereo not shown) [Compound 11] were 108.8 to 111.3 °C and 33%.
As to `COc1ccccc1CCC(=O)NCC1(c2ccccc2)CC1(c1ccccc1)c1ccccc1` (stereo not shown) [Compound 81], the melting point was in the range of 187.5 to 189 °C. Moreover, the inhibition in vivo at 1 mg in series [1] was determined as 22%.
On the same counts, the results for `O=C(CCc1c[nH]c2ccccc12)NCC(c1ccccc1)C(c1ccccc1)c1ccccc1` (stereo not shown) [Compound 48] are 100 to 114 °C and 22%.
For `CCCC(=O)NCC1(c2ccccc2)CC1(c1ccccc1)c1ccccc1` (stereo not shown) [Compound 83], the melting point is 149 to 150 °C. Further, in series [1], the inhibition in vivo at 1 mg was -4%.
Taken in the same sequence, the figures for `COc1ccccc1CCC(=O)NCC(c1ccccc1)C1c2ccccc2CCc2ccccc21` (stereo not shown) [Compound 74] were 134.3 to 136.8 °C and 18%.
In turn, `O=C(Cc1ccsc1)NCC(c1ccc(Cl)cc1)C(c1ccccc1)c1ccccc1` (stereo not shown) [Compound 35] gave a melting point of 126.4 to 127.9 °C. In addition, the inhibition in vivo at 1 mg in series [1] was found to be 36%.
On the same counts, the results for `O=C(Cc1cccs1)NCC(c1ccccc1)C1c2ccccc2CCc2ccccc21` (stereo not shown) [Compound 75] are 175 to 177.5 °C and 26%.
`O=C(NCc1ccc(Cl)cc1Cl)NCC(c1ccccc1)C(c1ccccc1)c1ccccc1` (stereo not shown) [Compound 55]: the melting point is 166 to 167 °C. Besides, the inhibition in vivo at 1 mg in series [1] is 18%.
On the same counts, the results for `COc1ccccc1CCC(=O)NCC(c1ccccc1)C(c1ccccc1)c1ccccc1` (stereo not shown) [Compound 20] are 137 to 140 °C and 32%.
The molecule `CC(C)C(=O)NCC1(c2ccccc2)CC1(c1ccccc1)c1ccccc1` (stereo not shown) [Compound 84] registered a melting point of 167 to 168 °C. Also, the inhibition in vivo at 1 mg in series [1] turned out to be 54%.
With `O=C(Cc1ccccc1)NCC(c1ccccc1)C1c2ccccc2-c2ccccc21` (stereo not shown) [Compound 66], the melting point was 148.7 to 150.8 °C. Moreover, the inhibition in vivo at 1 mg in series [1] worked out at 20%.
In turn, `O=C(NCC(c1ccccc1)C(c1ccccc1)c1ccccc1)Oc1ccccc1` (stereo not shown) [Compound 56] came in with a melting point of 128 to 129 °C. Also, the inhibition in vivo at 1 mg in series [1] turned out to be 38%.
Consider `O=C(Cc1ccccc1C(F)(F)F)NCC(c1ccccc1)C(c1ccccc1)c1ccccc1` (stereo not shown) [Compound 10], for which the melting point lay in the range of 109 to 111.5 °C. For the same molecule, the inhibition in vivo at 1 mg in series [1] amounted to 19%.
Taken in the same sequence, the figures for `O=C(NCC(c1ccccc1)C(c1ccccc1)c1ccccc1)c1cc2ccccc2s1` (stereo not shown) [Compound 43] were 218.3 to 218.8 °C and 47%.
`O=C(Cc1ccccc1Cl)NCC1(c2ccccc2)CC1(c1ccccc1)c1ccccc1` (stereo not shown) [Compound 80, N-(2chlorophenyl)acetyl-1,2,2-triphenylcyclopropylmethylamine] showed a melting point of 128.5 to 130.5 °C. In addition, the inhibition in vivo at 1 mg in series [1] was 54%.
On the same counts, the results for `O=C(Cc1ccccc1)NCC(c1ccc(Cl)cc1)C(c1ccccc1)c1ccccc1` (stereo not shown) [Compound 14] are 151.5 to 152.7 °C and 11%.
Taken in the same sequence, the figures for `O=C(Cc1ccsc1)NCC(c1ccccc1)C(c1ccccc1)c1ccccc1` (stereo not shown) [Compound 36] were 135 to 138 °C and 13%.
`COc1ccccc1CCC(=O)NCC(c1ccccc1)C(c1ccc(F)cc1)c1ccc(F)cc1` (stereo not shown) [Compound 23] had a melting point of 78.9 to 80.9 °C. In series [1], the inhibition in vivo at 1 mg came out at 41% and the “topical antiinflammatory activity in the oxazolone model (in words)” value was “moderate topical activity”.
Molecule `CCCCC(=O)NCC1(c2ccccc2)CC1(c1ccccc1)c1ccccc1` (stereo not shown) [Compound 87] yielded a melting point of 122 to 123 °C. Also, the inhibition in vivo at 1 mg in series [1] came out at 22%.
In turn, `O=C(Cc1ccc(C(F)(F)F)cc1)NCC(c1ccccc1)C(c1ccccc1)c1ccccc1` (stereo not shown) [Compound 12] came in with a melting point of 119.5 to 120.3 °C. Moreover, in series [1], the inhibition in vivo at 1 mg was determined as 36%.
`CCCC(=O)NCC(c1ccccc1)C(c1ccccc1)c1ccccc1` (stereo not shown) [Compound 60] gave a melting point of 88 to 89 °C. Also, in series [1], the inhibition in vivo at 1 mg was 27%.
Taken in the same sequence, the figures for `CN(CC(c1ccccc1)C(c1ccccc1)c1ccccc1)C(=O)Cc1cccs1` (stereo not shown) [Compound 44] were 107 to 109.3 °C and 3%.
As for `O=C(Cc1ccccc1Cl)NCC(c1ccccc1)C(c1ccc(F)cc1)c1ccc(F)cc1` (stereo not shown) [Compound 16], the melting point lay in the range of 127.3 to 129.4 °C. In series [1], the inhibition in vivo at 1 mg amounted to 46% and the “topical antiinflammatory activity in the oxazolone model (in words)” value was “moderate topical activity”.
Taken in the same sequence, the figures for `O=C(Cc1cccs1)NCC(c1ccccc1)C(c1ccccc1)c1ccccc1` (stereo not shown) [Compound 29, N-(2-thiophene)acetyl-2,3,3-triphenylpropylamine] were 130 to 132 °C, 83% and “equiactive with hydrocortisone; also recorded: inhibited ear swelling in a dose-dependent manner”.
`Cc1ccc(S(=O)(=O)CC(=O)NCC(c2ccccc2)C(c2ccccc2)c2ccccc2)cc1` (stereo not shown) [Compound 28] gave a melting point of 190.3 to 191.9 °C. The inhibition in vivo at 1 mg in series [1] was determined as 28%.
On the same counts, the results for `O=C(CCc1ccccc1Cl)NCC(c1ccccc1)C(c1ccccc1)c1ccccc1` (stereo not shown) [Compound 22] are 135 to 135.8 °C and 15%.
On the same counts, the results for `O=C(Cc1cccs1)NCC1(c2ccccc2)CC1(c1ccccc1)c1ccccc1` (stereo not shown) [Compound 88] are 135 to 137 °C and 29%.
Taken in the same sequence, the figures for `O=C(C=Cc1cccs1)NCC(c1ccccc1)C(c1ccccc1)c1ccccc1` (stereo not shown) [Compound 38] were 217.3 to 218.9 °C and 13%.
As to `O=C(Cc1cccs1)NCC(c1ccc(I)cc1)C(c1ccccc1)c1ccccc1` (stereo not shown) [Compound 33], the melting point was in the range of 127 to 130 °C. Moreover, the inhibition in vivo at 1 mg in series [1] stood at 74%.
